# Results as given in ChEMBL document CHEMBL1201862, “PubChem BioAssay data set” (2004).
#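 96-well plates; 48 h exposure; 5 concentrations. Endpoints by linear interpolation between flanking doses. Not reached: highest tested concentration assigned. At the GI50, growth is halved.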 Activity calls are given as the source filed them. No stated cut-off is given here; in the data, active = GI50 up to about 1.1 µM and inactive = higher.
# How the values were obtained:
# Experiment in all cases: growth of human tumour cells (NCI), 48 h
# OVCAR-3 = system: OVCAR-3
# DU-145 = system: DU-145
# RXF 393 = system: RXF 393
# UACC-257 = system: UACC-257
# NCI-H522 = system: NCI-H522
# HCT-116 = system: HCT-116
# HL-60 = system: HL-60
# SK-MEL-28 = system: SK-MEL-28
# SW-620 = system: SW-620
# NCI-H226 = system: NCI-H226
# OVCAR-4 = system: OVCAR-4
# RPMI-8226 = system: RPMI-8226
# SF-268 = system: SF-268
# MDA-MB-435 = system: MDA-MB-435
# M14 = system: M14
# Malme-3M = system: Malme-3M
# SK-OV-3 = system: SK-OV-3
# COLO 205 = system: COLO 205
# ACHN = system: ACHN
# HCT-15 = system: HCT-15
# KM12 = system: KM12
# PC-3 = system: PC-3
# OVCAR-8 = system: OVCAR-8
# TK-10 = system: TK-10
# MCF7 = system: MCF7
# 786-0 = system: 786-0
# HOP-62 = system: HOP-62
# NCI-H23 = system: NCI-H23
# IGROV-1 = system: IGROV-1
# CAKI-1 = system: CAKI-1
# HT-29 = system: HT-29
# T47D = system: T47D
# MOLT-4 = system: MOLT-4
# SF-295 = system: SF-295
# LOX IMVI = system: LOX IMVI
# NCI-H460 = system: NCI-H460
# HOP-92 = system: HOP-92
# SF-539 = system: SF-539
# UACC-62 = system: UACC-62
# NCI/ADR-RES = system: NCI/ADR-RES
# A498 = system: A498
# SK-MEL-2 = system: SK-MEL-2
# SK-MEL-5 = system: SK-MEL-5
# UO-31 = system: UO-31
# SN12C = system: SN12C
# A549 = system: A549
# SR = system: SR
# Hs-578T = system: Hs-578T
# U-251 = system: U-251
# BT-549 = system: BT-549
# K562 = system: K562
# OVCAR-5 = system: OVCAR-5
# SNB-19 = system: SNB-19
# HCC 2998 = system: HCC 2998
# SNB-75 = system: SNB-75
# EKVX = system: EKVX
# MDA-MB-231 = system: MDA-MB-231
# CCRF-CEM = system: CCRF-CEM
# MDA-N = system: MDA-N
compound,measurement,setting,value
C=C1CC[C@@H]2C13[C@@H]1[C@H](CC(=O)[C@@]23C)C1(C)C (stereo partly drawn),GI50,OVCAR-3,21.6 µM (inactive)
same,GI50,DU-145,> 100 µM (inactive)
same,GI50,RXF 393,43.6 µM (inactive)
same,GI50,UACC-257,> 100 µM (inactive)
same,GI50,NCI-H522,> 100 µM (inactive)
same,GI50,HCT-116,> 100 µM (inactive)
same,GI50,HL-60,> 100 µM (inactive)
same,GI50,SK-MEL-28,> 100 µM (inactive)
same,GI50,SW-620,51.4 µM (inactive)
same,GI50,NCI-H226,> 100 µM (inactive)
same,GI50,OVCAR-4,15.5 µM (inactive)
same,GI50,RPMI-8226,> 100 µM (inactive)
same,GI50,SF-268,> 100 µM (inactive)
same,GI50,MDA-MB-435,> 100 µM (inactive)
same,GI50,M14,> 100 µM (inactive)
same,GI50,Malme-3M,> 100 µM (inactive)
same,GI50,SK-OV-3,> 100 µM (inactive)
same,GI50,COLO 205,84.5 µM (inactive)
same,GI50,ACHN,> 100 µM (inactive)
same,GI50,HCT-15,> 100 µM
same,GI50,KM12,> 100 µM (inactive)
same,GI50,PC-3,> 100 µM (inactive)
same,GI50,OVCAR-8,35.9 µM (inactive)
same,GI50,TK-10,33.7 µM (inactive)
same,GI50,MCF7,> 100 µM (inactive)
same,GI50,786-0,55.1 µM (inactive)
same,GI50,HOP-62,24 µM (inactive)
same,GI50,NCI-H23,> 100 µM (inactive)
same,GI50,IGROV-1,55.7 µM (inactive)
same,GI50,CAKI-1,> 100 µM (inactive)
same,GI50,HT-29,> 100 µM (inactive)
same,GI50,T47D,55.8 µM (inactive)
same,GI50,MOLT-4,> 100 µM (inactive)
same,GI50,SF-295,82 µM (inactive)
same,GI50,LOX IMVI,> 100 µM (inactive)
same,GI50,NCI-H460,> 100 µM (inactive)
same,GI50,HOP-92,> 100 µM (inactive)
same,GI50,SF-539,67.1 µM (inactive)
same,GI50,UACC-62,> 100 µM (inactive)
same,GI50,NCI/ADR-RES,> 100 µM (inactive)
same,GI50,A498,> 100 µM (inactive)
same,GI50,SK-MEL-2,> 100 µM (inactive)
same,GI50,SK-MEL-5,> 100 µM (inactive)
same,GI50,UO-31,16.4 µM (inactive)
same,GI50,SN12C,> 100 µM (inactive)
same,GI50,A549,26.4 µM (inactive)
same,GI50,SR,11.7 µM (inactive)
same,GI50,Hs-578T,> 100 µM (inactive)
same,GI50,U-251,> 100 µM (inactive)
same,GI50,BT-549,> 100 µM (inactive)
same,GI50,K562,81.5 µM (inactive)
same,GI50,OVCAR-5,> 100 µM (inactive)
COc1ccc(NC(=O)C2=C(SC)C(=O)N=C2N)cc1,GI50,SNB-19,> 100 µM (inactive)
same,GI50,DU-145,> 100 µM (inactive)
same,GI50,HCC 2998,> 100 µM (inactive)
same,GI50,RXF 393,> 100 µM (inactive)
same,GI50,UACC-257,> 100 µM (inactive)
same,GI50,SNB-75,> 100 µM (inactive)
same,GI50,HCT-116,> 100 µM (inactive)
same,GI50,HL-60,> 100 µM (inactive)
same,GI50,SK-MEL-28,> 100 µM (inactive)
same,GI50,SW-620,> 100 µM (inactive)
same,GI50,NCI-H226,> 100 µM (inactive)
same,GI50,OVCAR-4,> 100 µM (inactive)
same,GI50,RPMI-8226,> 100 µM (inactive)
same,GI50,EKVX,> 100 µM (inactive)
same,GI50,SF-268,> 100 µM (inactive)
same,GI50,MDA-MB-435,> 100 µM (inactive)
same,GI50,SK-OV-3,> 100 µM (inactive)
same,GI50,COLO 205,> 100 µM (inactive)
same,GI50,ACHN,> 100 µM (inactive)
same,GI50,HCT-15,> 100 µM
same,GI50,KM12,> 100 µM (inactive)
same,GI50,PC-3,> 100 µM (inactive)
same,GI50,OVCAR-8,> 100 µM (inactive)
same,GI50,TK-10,> 100 µM (inactive)
same,GI50,786-0,> 100 µM (inactive)
same,GI50,HOP-62,> 100 µM (inactive)
same,GI50,NCI-H23,> 100 µM (inactive)
same,GI50,IGROV-1,61.7 µM (inactive)
same,GI50,CAKI-1,> 100 µM (inactive)
same,GI50,HT-29,> 100 µM (inactive)
same,GI50,T47D,> 100 µM (inactive)
same,GI50,MOLT-4,> 100 µM (inactive)
same,GI50,SF-295,> 100 µM (inactive)
same,GI50,MDA-MB-231,> 100 µM (inactive)
same,GI50,LOX IMVI,> 100 µM (inactive)
same,GI50,NCI-H460,> 100 µM (inactive)
same,GI50,HOP-92,> 100 µM (inactive)
same,GI50,UACC-62,> 100 µM (inactive)
same,GI50,NCI/ADR-RES,> 100 µM (inactive)
same,GI50,A498,> 100 µM (inactive)
same,GI50,SK-MEL-2,82 µM (inactive)
same,GI50,SK-MEL-5,> 100 µM (inactive)
same,GI50,UO-31,> 100 µM (inactive)
same,GI50,CCRF-CEM,> 100 µM (inactive)
same,GI50,SR,40.6 µM (inactive)
same,GI50,Hs-578T,> 100 µM (inactive)
same,GI50,U-251,> 100 µM (inactive)
same,GI50,BT-549,> 100 µM (inactive)
same,GI50,K562,> 100 µM (inactive)
CCOC(=O)c1nc2cc(C(F)(F)F)ccc2nc1Nc1ccc(C(=O)NC(C(=O)OCC)C(=O)OCC)cc1,GI50,SNB-19,18.2 µM (inactive)
same,GI50,OVCAR-3,45.4 µM (inactive)
same,GI50,DU-145,51.6 µM (inactive)
same,GI50,HCC 2998,49.4 µM (inactive)
same,GI50,RXF 393,13.6 µM (inactive)
same,GI50,UACC-257,18.7 µM (inactive)
same,GI50,NCI-H522,18.7 µM (inactive)
same,GI50,HCT-116,19 µM (inactive)
same,GI50,HL-60,73.6 µM (inactive)
same,GI50,SK-MEL-28,14.1 µM (inactive)
same,GI50,SW-620,40.8 µM (inactive)
same,GI50,NCI-H226,13.7 µM (inactive)
same,GI50,OVCAR-4,10.6 µM (inactive)
same,GI50,RPMI-8226,11.5 µM (inactive)
same,GI50,EKVX,26.2 µM (inactive)
same,GI50,SF-268,19.5 µM (inactive)
same,GI50,MDA-MB-435,33.6 µM (inactive)
same,GI50,Malme-3M,20 µM (inactive)
same,GI50,SK-OV-3,22.2 µM (inactive)
same,GI50,COLO 205,44.4 µM (inactive)
same,GI50,ACHN,23.3 µM (inactive)
same,GI50,HCT-15,26.5 µM
same,GI50,KM12,27.5 µM (inactive)
same,GI50,PC-3,22.9 µM (inactive)
same,GI50,TK-10,24.7 µM (inactive)
same,GI50,MCF7,19.5 µM (inactive)
same,GI50,786-0,14.3 µM (inactive)
same,GI50,HOP-62,13.8 µM (inactive)
same,GI50,NCI-H23,35.5 µM (inactive)
same,GI50,IGROV-1,20.1 µM (inactive)
same,GI50,CAKI-1,19 µM (inactive)
same,GI50,HT-29,25.1 µM (inactive)
same,GI50,MOLT-4,> 100 µM (inactive)
same,GI50,SF-295,15.5 µM (inactive)
same,GI50,MDA-MB-231,17.4 µM (inactive)
same,GI50,LOX IMVI,54.2 µM (inactive)
same,GI50,NCI-H460,73.6 µM (inactive)
same,GI50,HOP-92,27.4 µM (inactive)
same,GI50,UACC-62,11.5 µM (inactive)
same,GI50,A498,25.5 µM (inactive)
same,GI50,SK-MEL-2,52.5 µM (inactive)
same,GI50,SK-MEL-5,20.5 µM (inactive)
same,GI50,UO-31,30.6 µM (inactive)
same,GI50,SN12C,18.9 µM (inactive)
same,GI50,CCRF-CEM,75 µM (inactive)
same,GI50,MDA-N,> 10 µM (inactive)
same,GI50,SR,46.9 µM (inactive)
same,GI50,Hs-578T,12.4 µM (inactive)
same,GI50,U-251,14 µM (inactive)
same,GI50,BT-549,23.6 µM (inactive)
same,GI50,K562,43.2 µM (inactive)
same,GI50,OVCAR-5,45.1 µM (inactive)
